# Test results published in patent publication US20190359941A1, “SUBSTITUTED AZOLE DERIVATIVES FOR GENERATION, PROLIFERATION AND DIFFERENTIATION OF HEMATOPOIETIC STEM AND PROGENITOR CELLS” (NATIONAL UNIVERSITY OF SINGAPORE, priority 2016, published 2019).
# Entries after “also recorded” stand apart in the source; their conditions may differ. Read-outs that look alike come from different tables or passages of the source.
# What was measured:
# [1] = test system: hematopoietic progenitor cells (HPC: CD45+CD34+CD38−CD45RA−); test: Ex vivo expansion of hematopoietic progenitor cells from non-enriched UCB mononuclear cells; conditions: for relative effectiveness in inducing ex vivo expansion of HPC/HSPC (in words): among all the compounds screened; for enhancement of HPC expansion compared to cytokine control: 11 days (FIG. 9A)
# CD34 cells = conditions: cited from earlier work
# [2] = test system: total nucleated cells (TNC); conditions: for expansion of TNC reduced, compared to 5.0 μM: 11 days (FIG. 9A)
# Source text: UCB was obtained through Singapore Cord Blood Bank (SCBB), from donated units failing to meet the criteria for clinical banking. Prior consent was obtained from the donating mothers and the Research Advisory Ethics Committee of the SCBB, along with the Institutional Review Boards of National University of Singapore (NUS), and Singapore General Hospital (SGH) approved the usage of the samples. Mononuclear cells (MNC) were isolated from the fresh UCB by density gradient centrifugation using Ficoll-Histopaque™ Premium (GE Healthcare, UK). Counted UCB-MNC was cryopreserved in 90% v/v autologous plasma with 10% v/v dimethyl-sulfoxide (DMSO) (Sigma Aldrich, USA) for subsequent usage. UCB-MNC was thawed using human serum albumin (25% v/v) (Health Sciences Authority, Singapore) and Dextran 40 (75% v/v) (Hospira, USA). […] For certain experiments, cell cultures were initiated with purified populations such as early (CD45+CD34+CD38−) or late (CD45+CD34+CD38+) progenitor cells at optimal plating concentration of 5.0×10^4 cells/ml or 2.0×10^6 cells/ml, respectively. Such pure populations were obtained by labeling the frozen-thawed, non-enriched UCB-MNC using fluorescence conjugated antibodies followed by fluorescence activated cell sorting (FACS). The substituted azole-based small molecules dissolved in DMSO were added to the cultures at an empirically determined optimal concentration of 5.0 μM. UCB-MNC cultures devoid of small molecules but supplemented with cytokines served as control, while cultures supplemented with cytokines and DMSO served as vehicle control.
# Cell cultures for in vitro experiments were done in 6- or 24-well plates (BD Falcon, USA), while culturing for in vivo transplantation studies was carried out in T-175 flasks (Corning, USA). Cell cultures were maintained in a humidified, 5% carbon dioxide incubator at 37° C. for the required duration. For UCB expansion evaluation and animal experimentation, an established 10-11-day expansion protocol was used which included cytokine and small molecule replenishment on day 7. At completion of incubation, cells were aspirated from the culture-ware with subsequent rinsing by Dulbecco's phosphate buffered saline (DPBS) (Hyclone, USA). The extracted cells were counted using an automated differential hematology cell counter (COULTER® AcT™ diff Hematology Analyzer, Beckman Coulter Inc, USA) and re-suspended in DPBS for subsequent in vitro analysis or transplantation in mice.
# [3] = test system: HSC2 (CD45+CD34+CD38−CD45RA−CD90+CD49f+); test: Ex vivo expansion of HSC2 from UCB-MNC; conditions: 5.0 μM; SFEM; over 10 days (FIG. 13C)
# Source text: Mononuclear cells (MNC) were isolated from the fresh UCB by density gradient centrifugation using Ficoll-Histopaque™ Premium (GE Healthcare, UK). Counted UCB-MNC was cryopreserved in 90% v/v autologous plasma with 10% v/v dimethyl-sulfoxide (DMSO) (Sigma Aldrich, USA) for subsequent usage. UCB-MNC was thawed using human serum albumin (25% v/v) (Health Sciences Authority, Singapore) and Dextran 40 (75% v/v) (Hospira, USA). […] For certain experiments, cell cultures were initiated with purified populations such as early (CD45+CD34+CD38−) or late (CD45+CD34+CD38+) progenitor cells at optimal plating concentration of 5.0×10^4 cells/ml or 2.0×10^6 cells/ml, respectively. Such pure populations were obtained by labeling the frozen-thawed, non-enriched UCB-MNC using fluorescence conjugated antibodies followed by fluorescence activated cell sorting (FACS). The substituted azole-based small molecules dissolved in DMSO were added to the cultures at an empirically determined optimal concentration of 5.0 μM. […]
# Cell cultures were maintained in a humidified, 5% carbon dioxide incubator at 37° C. for the required duration. […] The extracted cells were counted using an automated differential hematology cell counter (COULTER® AcT™ diff Hematology Analyzer, Beckman Coulter Inc, USA) and re-suspended in DPBS for subsequent in vitro analysis or transplantation in mice. […]
# CD34+ cells = conditions: 5.0 μM; 11 days (FIG. 17H)
# UCB-MNC expanded cells = conditions: 5.0 μM; ACF; 11 days (FIG. 13E)
# Protocol: UCB-MNC samples were fixed with modified Carnoy's fixative (Leica Biosystems, Germany) and placed onto glass microscope slides, and then dehydrated through an ethanol (Sigma-Aldrich, USA) series (70%, 85% and 100%) for 2 minutes followed by air-drying.
# FISH assays were carried out using a panel of probes (Abbott Molecular, USA) comprising LSI D7S486 SpectrumOrange™/CEP 7 SpectrumGreen™, CEP 8 SpectrumAqua™/LSI MYC SpectrumOrange™, LSI CDKN2A SpectrumOrange™/CEP 9 SpectrumGreen™, LSI ABL1 SpectrumOrange™/BCR SpectrumGreen™ dual fusion translocation probe, LSI MLL dual color break-apart probe, LSI ETV6 SpectrumGreen™/RUNX1 SpectrumOrange™ extra signal dual color translocation probe, and LSI TP53 SpectrumOrange™/CEP 17 SpectrumGreen™ probe set. The FISH probes were applied to the fixed cells and co-denatured at 75° C., followed by an overnight hybridization at 37° C. Washes were performed and the slide was counterstained with DAPI anti-fade solution (Vectashield, Vector Laboratories, USA) and analyzed using an epi-fluorescence microscope (Leica, Germany).
# Signals from 100 non-overlapping nuclei were enumerated for loss of LSI D7S486, trisomy 8, loss of CDKN2A, translocation involving ABL1 and BCR, MLL break-apart, translocation involving ETV6 and RUNX1, and loss of TP53. […]
# [4] = test system: colony forming unit (CFU) - granulocyte, macrophage (GM); conditions: 5.0 μM; SFEM; 10 days (FIG. 9B)
# Protocol: Colony-forming units (CFU) of granulocyte-monocyte (GM) from freshly thawed UCB-MNC or 11 days expanded cells of the mentioned cell cultures were evaluated. Duplicates of freshly thawed UCB-MNC (5,000 and 10,000 cells) and expanded cells (1,000 and 5,000 cells) were cultured in 35 mm petri dishes (BD Falcon, USA) in 1.1 mL of hematopoietic stem cell (HSC)-CFU complete media with erythropoietin (EPO) (Miltenyi Biotec, Germany) without any further media manipulation. After 14-16 days in culture in a humidified environment at 37° C. and 5% CO2, colonies were scored and pictured using a SZ61 Olympus microscope equipped with charge-coupled device (CCD) camera (Olympus Europa GmbH, Germany).
# [5] = test system: CD45+ leukocytes of UCB-MNC; conditions: 5.0 μM; 72 hours / day 3; frozen-thawed MNC (FIG. 7)
# Protocol: SB203580, DMSO and cytokines alone in serum-free expansion media (SFEM) served as the reference compound, vehicle and blank control, respectively. Data represents mean±SEM for n=3.
# Annexin-V-FITC (Beckman Coulter, Inc., USA), 7-AAD (Beckman Coulter, Inc., USA) and CD45-PE-Cy7 were used for CD45+ cell viability analysis.
# All compounds were assessed for their ability to maintain the viability of CD45+ leukocytes using Annexin V and 7-AAD. Induction of apoptosis in the CD45+ cells during ex vivo cultures limits expansion of HSPC.
# [6] = IM-29 mediated expansion of UCB
# [7] = 5.0 μM, SFEM, 10 days (FIG. 8C)
structure (smiles),measurement,setting,value
"Cc1cccc(-c2oc(-c3ccc4ccccc4c3F)nc2-c2ccncc2)c1 [OZ-07, 2-(1-fluoronaphthalen-2-yl)-4-(pyridin-4-yl)-5-(m-tolyl)oxazole]",relative effectiveness in inducing ex vivo expansion of HPC/HSPC (in words),[1]; 5.0 μM,not optimally active
"NC(=O)c1cccnc1 [NAM, nicotinamide]",increase of CD34 cells,"CD34 cells; over 21 days, Horwitz et al. 2014",72 fold
"Cc1cccc(-c2nc(-c3ccc4ccccc4c3F)[nH]c2-c2ccncc2)c1 [IM-04, 4-[2-(1-fluoronaphthalen-2-yl)-4-(m-tolyl)-1H-imidazol-5-yl]pyridine]",relative effectiveness in inducing ex vivo expansion of HPC/HSPC (in words),[1]; 5.0 μM,second most effective compound
"Fc1ccc(-c2nc(-c3ccc4ccccc4c3F)[nH]c2-c2ccncc2)cc1 [IM-29, 4-[2-(1-fluoronaphthalen-2-yl)-4(5)-(4-fluorophenyl)-1H-imidazol-5(4)-yl]pyridine]","expansion of TNC reduced, compared to 5.0 μM","[2]; 1.0 μM IM-29, ACF",0.83 fold
same,increase of total nucleated cells (TNC) compared to starting cell number,"[2]; 5.0 μM, ACF, by day 11 (FIG. 11)",about 6 fold
same,"expansion of TNC reduced, compared to 5.0 μM","[2]; 10 μM IM-29, ACF",0.70 fold
same,increase of total nucleated cells (summary),[2]; [6],at least 5 fold
same,enhancement of HPC expansion compared to cytokine control,"[1]; 1.0 μM, ACF",2.7 fold
same,enhancement effect for HPC expansion compared to cytokine control,"[1]; 5.0 μM, 10 days (FIG. 8A)",8 fold
same,boost of HPC expansion on increasing culturing period from 7 days to 9 days,"[1]; 5.0 μM, ACF (FIG. 11)",at least 5 fold
same,"expansion of HPC, IM-29 added at both day 0 and day 7 (Group 1)","[1]; 5.0 μM, ACF, 10 days (FIG. 12)",≥ 450 fold
same,enhancement of HPC expansion compared to cytokine control,"[1]; 5.0 μM, ACF",3.6 fold
same,HPC-associated expression of CD45+CD34+CD38−CD45RA−,[1]; [7],about 68%
same,"HPC-associated expression, fold higher than cytokine control",[1]; [7],3 fold
same,"expansion of HPC, IM-29 added at both day 0 and day 7 (Group 1)","[1]; 5.0 μM, SFEM, 10 days (FIG. 12)",at least 750 fold
same,enhancement of HPC expansion compared to cytokine control,"[1]; 10.0 μM, ACF",2.4 fold
same,HPC expansion reduced compared to Group 1 when IM-29 not replenished on day 7 (Group 2),"[1]; IM-29 at day 0 only, 10 days (FIG. 12)",at least 0.7 fold
same,expansion of HPC (summary),[1]; [6],"at least 1,000 fold"
same,HPC expansion with IM-29 and a single cytokine,"[1]; S+IM, T+IM, F+IM or IG+IM (data not shown)",minimal expansion
same,"HPC expansion, fold higher than the four cytokines culture","[1]; S+T+F+IG+IM-29 vs four cytokines, ACF, 11 days (FIG. 1)",at least 4.7 fold
same,HPC expansion,"[1]; S+T+F+IM-29 5.0 μM, ACF, 11 days (FIG. 1)",1265.2±39.1 fold
same,HPC expansion enhancement effect vs S+T+F,"[1]; S+T+F+IM-29 vs S+T+F, ACF, 11 days (FIG. 1)",2.6 fold
same,HPC expansion,"[1]; SCF+TPO+FLT-3L+IGFBP-2+IM-29 5.0 μM, ACF, 11 days (FIG. 1)",1513.9±6.4 fold
same,relative effectiveness in inducing ex vivo expansion of HPC/HSPC (in words),[1]; 5.0 μM,most effective of those tested; also recorded: most effective compound
same,augmentation of HPC expansion when IM-29 is added to basal cocktail,"[1]; basal cocktail S+IG+T, ACF, 11 days (FIG. 1)",two-fold
same,"HPC expansion of Group 1, fold higher than cytokine control Group 3","[1]; irrespective of basal culture media, 10 days (FIG. 12)",at least 12 fold
same,"effect on expanding HSPC, IM-29 added only at day 7 (Group 4)","[1]; not added at start of culture, 10 days (FIG. 12)",negligible effect
same,HPC expansion with IM-29 alone,[1]; without any cytokines (data not shown),did not support the expansion of HPC
same,HSC2 expansion enhancement compared to cytokine-only control,[3],at least 7.5 fold
same,"CD34+ cell expansion, fold higher compared to cytokine control cultures",CD34+ cells,approximately 1.9 fold
same,FISH results with probes relating to hematological malignancies,UCB-MNC expanded cells,normal results
same,expansion of colony forming units (CFU) compared to non-cultured cells,[4],at least 100 fold
same,acute toxicity to UCB cells (CD45+ viability),[5],minimal toxicity
"Fc1ccc(-c2nc(-c3ccc4ccccc4c3)[nH]c2-c2ccncc2)cc1 [ZQX-33, 4-[2-(naphthalen-2-yl)-4(5)-(4-fluorophenyl)-1H-imidazol-5(4)-yl]pyridine]",HPC expansion capacity reduced relative to IM-29,"[1]; naphthalen-2-yl instead of 1-fluoronaphthalen-2-yl at C2, P<0.001",at least 2 fold
"CC(C)n1cnc2c(NCCc3ccc(O)cc3)nc(-c3csc4ccccc34)nc21 [SR-1, stemregenin-1]",median CD34 expansion,"CD34 cells; cultures lasting up to 15 days, Wagner et al. 2016",330 fold
